Values joined by “and” are separate entries in the source; they are usually repeats but may differ in a detail not shown here. Equal values may be shown once. Inconclusive results and toxic doses are left out.
System: CD2F1 mice, L1210 leukemia ip, survival T/C
Test: NCI In Vivo Anticancer Drug Screen. Data for tumor model L1210 Leukemia (intraperitoneal) in CD2F1 (CDF1) mice
Details: higher = longer survival
How it was run: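 Activity against a transplanted murine tumor was judged by comparing the compound group with a vehicle group. The outcome in the treated animals was divided by that in the controls.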

[1] = endpoint: mean survival time, dose: 100.0 mg/kg/injection, schedule: Q04DX003 (ip), vehicle: saline with Tween-80
[2] = endpoint: mean survival time, dose: 200.0 mg/kg/injection, schedule: Q04DX003 (ip), vehicle: saline with Tween-80
[3] = endpoint: mean survival time, dose: 400.0 mg/kg/injection, schedule: Q04DX003 (ip), vehicle: saline with Tween-80

NC(=O)NN=C1CCC1
T/C (endpoint: mean survival time, dose: 75.0 mg/kg/injection, schedule: Q01DX001 (ip), vehicle: saline): 98 % of control

O=C(O)c1cc(C(=O)O)cc(S(=O)(=O)O)c1.[NH-]C1CCCCC1[NH-].[Pt+2]
T/C (endpoint: median survival time, dose: 3.12 mg/kg/injection, schedule: Q04DX003 (ip), vehicle: saline): 121 % of control and 103 % of control
T/C (endpoint: median survival time, dose: 12.5 mg/kg/injection, schedule: Q04DX003 (ip), vehicle: saline): 168 % of control
T/C (endpoint: median survival time, dose: 25.0 mg/kg/injection, schedule: Q04DX003 (ip), vehicle: saline): 176 % of control
T/C (endpoint: median survival time, dose: 50.0 mg/kg/injection, schedule: Q04DX003 (ip), vehicle: saline): 235 % of control and 350 % of control
T/C (endpoint: median survival time, dose: 100.0 mg/kg/injection, schedule: Q04DX003 (ip), vehicle: saline): 188 % of control

COC12C(COC(C)=O)C3=C(C(=O)C(C)=C(N4CCCCC4)C3=O)N1CC1NC12 (stereo unspecified)
T/C (endpoint: mean survival time, dose: 0.75 mg/kg/injection, schedule: Q01DX001 (ip), vehicle: distilled water + Tween-80): 97 % of control
T/C (endpoint: mean survival time, dose: 1.5 mg/kg/injection, schedule: Q01DX001 (ip), vehicle: distilled water + Tween-80): 103 % of control
T/C (endpoint: mean survival time, dose: 3.0 mg/kg/injection, schedule: Q01DX001 (ip), vehicle: distilled water + Tween-80): 105 % of control and 112 % of control
T/C (endpoint: mean survival time, dose: 6.0 mg/kg/injection, schedule: Q01DX001 (ip), vehicle: distilled water + Tween-80): 122 % of control and 105 % of control
T/C (endpoint: mean survival time, dose: 12.0 mg/kg/injection, schedule: Q01DX001 (ip), vehicle: distilled water + Tween-80): 112 % of control

CC(C)CCCC(C)C1CCC2C3C(=O)C4=CC(=O)CCC4(C)C3CCC12C (stereo unspecified)
T/C (endpoint: mean survival time, dose: 100.0 mg/kg/injection, schedule: Q01DX001 (ip), vehicle: saline with Tween-80): 94 % of control
T/C (endpoint: mean survival time, dose: 200.0 mg/kg/injection, schedule: Q01DX001 (ip), vehicle: saline with Tween-80): 96 % of control
T/C (endpoint: mean survival time, dose: 400.0 mg/kg/injection, schedule: Q01DX001 (ip), vehicle: saline with Tween-80): 90 % of control

CC1(C)CC(=O)C2=C(C1)OC1=C(C(=O)CC(C)(C)C1)C2c1ccccc1Cl
T/C [1]: 102 % of control
T/C [2]: 100 % of control
T/C [3]: 104 % of control

OCCCN1CCCCC1CO (stereo unspecified)
T/C (endpoint: mean survival time, dose: 12.5 mg/kg/injection, schedule: Q01DX009 (ip), vehicle: saline): 101 % of control and 103 % of control
T/C (endpoint: mean survival time, dose: 25.0 mg/kg/injection, schedule: Q01DX009 (ip), vehicle: saline): 98 % of control and 100 % of control
T/C (endpoint: mean survival time, dose: 50.0 mg/kg/injection, schedule: Q01DX009 (ip), vehicle: saline): 97 % of control and 98 % of control
T/C (endpoint: mean survival time, dose: 100.0 mg/kg/injection, schedule: Q01DX009 (ip), vehicle: saline): 97 % of control and 98 % of control
T/C (endpoint: mean survival time, dose: 200.0 mg/kg/injection, schedule: Q01DX009 (ip), vehicle: saline): 98 % of control
T/C (endpoint: mean survival time, dose: 400.0 mg/kg/injection, schedule: Q01DX009 (ip), vehicle: saline): 91 % of control and 97 % of control
T/C (endpoint: median survival time, dose: 400.0 mg/kg/injection, schedule: Q01DX009 (ip), vehicle: saline): 103 % of control
T/C (endpoint: median survival time, dose: 800.0 mg/kg/injection, schedule: Q01DX009 (ip), vehicle: saline): 97 % of control

CCC1(OC(=O)CN)C(=O)OCc2c1cc1n(c2=O)Cc2cc3ccccc3nc2-1 (stereo unspecified)
T/C (endpoint: median survival time, dose: 7.5 mg/kg/injection, schedule: Q04DX002 (ip), vehicle: saline): 117 % of control and 122 % of control
T/C (endpoint: median survival time, dose: 7.5 mg/kg/injection, schedule: Q04HX004 (iv), vehicle: dextrose): 175 % of control
T/C (endpoint: median survival time, dose: 7.5 mg/kg/injection, schedule: Q04HX004 (iv), vehicle: other): 186 % of control
T/C (endpoint: median survival time, dose: 15.0 mg/kg/injection, schedule: Q04HX004 (iv), vehicle: dextrose): 172 % of control
T/C (endpoint: median survival time, dose: 15.0 mg/kg/injection, schedule: Q04HX004 (iv), vehicle: other): 204 % of control
T/C (endpoint: median survival time, dose: 30.0 mg/kg/injection, schedule: Q04DX002 (ip), vehicle: saline): 191 % of control and 213 % of control
T/C (endpoint: median survival time, dose: 30.0 mg/kg/injection, schedule: Q04HX004 (iv), vehicle: dextrose): 226 % of control
T/C (endpoint: median survival time, dose: 30.0 mg/kg/injection, schedule: Q04HX004 (iv), vehicle: other): 219 % of control
T/C (endpoint: median survival time, dose: 40.0 mg/kg/injection, schedule: Q04HX004 (iv), vehicle: other): 217 % of control

O=C(CCCN1CCC(O)(c2ccc(C(F)(F)F)cc2)CC1)c1ccc(N2CCC(O)CC2)cc1
T/C (endpoint: mean survival time, dose: 12.5 mg/kg/injection, schedule: Q04DX002 (ip), vehicle: saline with Tween-80): 103 % of control
T/C (endpoint: mean survival time, dose: 25.0 mg/kg/injection, schedule: Q04DX002 (ip), vehicle: saline with Tween-80): 103 % of control
T/C (endpoint: mean survival time, dose: 50.0 mg/kg/injection, schedule: Q04DX002 (ip), vehicle: saline with Tween-80): 103 % of control

COc1ccc(NC(=O)Nc2ccc(OC)cc2OC)cc1
T/C (endpoint: mean survival time, dose: 100.0 mg/kg/injection, schedule: Q04DX002 (ip), vehicle: saline with Tween-80): 86 % of control
T/C (endpoint: mean survival time, dose: 200.0 mg/kg/injection, schedule: Q04DX002 (ip), vehicle: saline with Tween-80): 90 % of control
T/C (endpoint: mean survival time, dose: 400.0 mg/kg/injection, schedule: Q04DX002 (ip), vehicle: saline with Tween-80): 86 % of control

CSc1nc(N)cc(N)n1
T/C (endpoint: mean survival time, dose: 100.0 mg/kg/injection, schedule: Q01DX009 (ip), vehicle: saline with Tween-80): 98 % of control
T/C [1]: 98 % of control
T/C (endpoint: mean survival time, dose: 200.0 mg/kg/injection, schedule: Q01DX009 (ip), vehicle: saline with Tween-80): 95 % of control
T/C [2]: 97 % of control
T/C (endpoint: mean survival time, dose: 400.0 mg/kg/injection, schedule: Q01DX009 (ip), vehicle: saline with Tween-80): 100 % of control
T/C [3]: 102 % of control
